These results are taken from ChEMBL document CHEMBL5154681, “Small Amphiphilic Peptides: Activity Against a Broad Range of Drug-Resistant Bacteria and Structural Insight into Membranolytic Properties” (J Med Chem, 2022).

In brackets after ≈: the same amount, converted by molar mass. Activity calls are given as the source filed them. The rule behind the calls is not given here. Square brackets hold non-standard residues; d marks the D form. Peptide text beside a SMILES is read from it. Dip = N[C@H](C(=O)O)C(c1ccccc1)c1ccccc1; 2Nal = N[C@@H](Cc1ccc2ccccc2c1)C(=O)O

The test system of series [1] is MRC5. The series can be described thus: Cytotoxicity against human MRC-5 assessed as cell viability at 250 ug/ml incubated for 24 hrs by microplate spectrophotometer analysis method. Format: toxicity, cell-based. To be noted: mrc5, 24 h, dose 250 µg/ml.
Series [2] has as its system Staphylococcus aureus. In words: Bactericidal activity against methicillin resistant Staphylococcus aureus ATCC BAA-1556 assessed as time required for complete reduction of bacterial growth at 4 times MIC by counting formed colonies. Format: functional.
Series [3] has as its system Staphylococcus aureus. The series can be described thus: Bactericidal activity against methicillin resistant Staphylococcus aureus ATCC BAA-1556 assessed as time required for complete reduction of bacterial growth at MIC by counting formed colonies. Format: functional.
The test system of series [4] is Escherichia coli. The series can be described thus: Bactericidal activity against Escherichia coli ATCC BAA-2452 assessed as time required for complete reduction of bacterial growth at MIC by counting formed colonies. Format: functional.
For series [5], the system named is Lipid bilayer. The series can be described thus: Membrano-lytic effect in bacterial inner membrane mimic DOPC/DOPG (7:3) large unilamellar vesicles assessed as calcein leakage measured upto 100 mins for every 10 mins by multimode microplate reader assay. To be noted: dose 5-50 µg/ml, DDE = dose-dependent effect. Format: cell membranes.
In series [6] the test system is HepaRG. In words: Cytotoxicity against human HPRGC10 assessed as cell viability at 250 ug/ml incubated for 24 hrs by microplate spectrophotometer analysis method relative to control. Format: functional. To be noted: read-out: Activity.
The test system of series [7] is Pseudomonas aeruginosa. In words: Antibacterial activity against Pseudomonas aeruginosa ATCC 27883 incubated for 24 hrs by microtiter plate method. The settings on record: Pseudomonas aeruginosa, ATCC 27883, 24 h, read-out: MIC. Format: functional.
Series [8] can be described thus: Cytotoxicity against HEK293 assessed as cell viability at 250 ug/ml incubated for 24 hrs by microplate spectrophotometer analysis method relative to control. Format: toxicity, cell-based. To be noted: human, HEK293 cells, at 250 µg/mL, read-out: Activity.
For series [9], the system named is Lipid bilayer. The series can be described thus: Induction of membrane disruption in bacterial inner membrane mimic DOPC/DOPG (7:3) large unilamellar vesicles assessed as decrease in particle size of liposome at 1:1 compound to lipid ratio measured after 24 hrs by dynamic light scattering analysis. It counts as cell membranes.
A short description of series [10]: Proteolytic stability in human plasma at 100 uM incubated for 24 hrs by Q-TOF LC/MS analysis relative to control. Format: ADME, cell-free. To be noted: read-out: Stability.
For series [11], the system named is Staphylococcus aureus. In words: Antibacterial activity against methicillin resistant Staphylococcus aureus ATCC BAA-1556 incubated for 24 hrs by microtiter plate method. The settings on record: Staphylococcus aureus, ATCC BAA-1556, 24 h, read-out: MIC. It counts as functional.
Series [12] relates to Staphylococcus aureus. The series can be described thus: Antibacterial activity against Staphylococcus aureus ATCC 29213 incubated for 24 hrs by microtiter plate method. Format: functional. The settings on record: Staphylococcus aureus, ATCC 29213, read-out: MIC.
The test system of series [13] is Cell membrane. The series can be described thus: Membrano-lytic effect in cytoplasmic membrane of Escherichia coli ATCC BAA-2452 assessed as disruption by measuring propidium iodide fluorescence incubated for 1 hr by FACscan flow cytometer analysis. The settings on record: DDE = dose-dependent effect. A general note: Flow cytometry measures light scatter and fluorescence of single cells or particles in a stream.

The nature of series [14]: Proteolytic stability in human plasma at 100 uM incubated for 30 mins by Q-TOF LC/MS analysis relative to control. It counts as ADME, cell-free. To be noted: read-out: Stability.
Series [15] concerns Cell membrane. The series can be described thus: Membrano-lytic effect in cytoplasmic membrane of methicillin resistant Staphylococcus aureus ATCC BAA-1556 assessed as disruption by measuring propidium iodide fluorescence incubated for 1 hr by FACscan flow cytometer analysis. To be noted: DDE = dose-dependent effect.
Series [16] deals with Cell membrane. The series can be described thus: Membrano-lytic effect in cytoplasmic membrane of methicillin resistant Staphylococcus aureus ATCC BAA-1556 assessed as disruption by measuring propidium iodide fluorescence at MIC incubated for 1 hr by FACscan flow cytometer analysis.
For series [17], the system named is Escherichia coli. In words: Bactericidal activity against Escherichia coli ATCC BAA-2452 assessed as time required for complete reduction of bacterial growth at 4 times MIC by counting formed colonies. It counts as functional.
A short description of series [18]: Hemolytic activity in human RBC assessed as hemolysis incubated for 2 hrs by spectrophotometer analysis. Format: toxicity, cell-based, Erythrocyte. To be noted: human red blood cells (erythrocytes).
Series [19] relates to Lipid bilayer. The series can be described thus: Membrano-lytic effect in mammalian membrane mimic DOPC/cholesterol (10:1) large unilamellar vesicles assessed as calcein leakage measured at 50 microg/ml measured upto 100 mins for every 10 mins by multimode microplate reader assay. Format: cell membranes. To be noted: dose 50.0 µg/ml.
In series [20] the test system is Escherichia coli. In words: Antibacterial activity against Escherichia coli ATCC 25922 incubated for 24 hrs by microtiter plate method. It counts as functional. The settings on record: Escherichia coli, ATCC 25922, 24 h, read-out: MIC.
The subject of series [21] is HEK293. In words: Cytotoxicity against HEK293 assessed as cell viability measured after 24 hrs by microplate spectrophotometer analysis. Format: toxicity, cell-based. The settings on record: human, hek293, 24 h, DDE = dose-dependent effect, dose < 250 µg/ml.
Series [22] relates to MRC5. The series can be described thus: Cytotoxicity against human MRC-5 assessed as cell viability measured after 24 hrs by microplate spectrophotometer analysis. Format: toxicity, cell-based. To be noted: mrc5, 24 h, DDE = dose-dependent effect, dose < 250 µg/ml.
For series [23], the system named is HepaRG. In words: Cytotoxicity against human HPRGC10 assessed as cell viability measured after 24 hrs by microplate spectrophotometer analysis. It counts as functional, cell-based. To be noted: dose <= 250.0 µg/ml, DDE = dose-dependent effect.

Regarding `N=C(N)NCCC[C@H](NC(=O)[C@H](CCCNC(=N)N)NC(=O)[C@H](CCCNC(=N)N)NC(=O)[C@@H](N)CCCNC(=N)N)C(=O)N[C@@H](Cc1ccc2ccccc2c1)C(=O)N[C@@H](Cc1ccc2ccccc2c1)C(=O)N[C@@H](Cc1ccc2ccccc2c1)C(=O)O` (H-RRRR[2Nal][2Nal][2Nal]-OH), the Activity result was “Non-Toxic” in series [1]; “Dde” in series [5]; “Dde” in series [13]; “Dde” in series [15]; 35% in series [16]; 6% in series [19]. The Time in [2] is 2 h; in series [3], 3 h; in series [4], 4 h; in series [17] it was 2.5 h. In addition, the viability at 250 µg/mL in series [6] worked out at 47%. The values for the MIC in series [7], in series [11] and in series [12] were 25 µg/mL (≈ 20.3 µM), 6.2 µg/mL (≈ 5.02 µM) and 6.2 µg/mL (≈ 5.02 µM), respectively. Besides, in series [8], the viability at 24 h, 250 ug/ml came to 69%. Also, the result in series [9] was Active. Further, the remaining at 24 h, 100 µM in [10] is 32%. Besides, in series [14], the remaining at 0.5 h, 100 µM came to 62%. In addition, the 50% haemolytic concentration (HC50) at 2 h in series [18] was 130 µg/mL.

Turning to `N=C(N)NCCC[C@H](NC(=O)[C@H](CCCNC(=N)N)NC(=O)[C@@H](N)CCCNC(=N)N)C(=O)N[C@@H](CCCNC(=N)N)C(=O)N[C@H](C(=O)N[C@H](C(=O)N[C@H](C(=O)O)C(c1ccccc1)c1ccccc1)C(c1ccccc1)c1ccccc1)C(c1ccccc1)c1ccccc1` (H-RRRR[Dip][Dip][Dip]-OH), the Time in series [2] was 2 h; in series [3], 3 h; in series [4], 4 h; in [17], 2.5 h. For the same compound, the Activity entry in [5] was “Dde”; in series [21], “Dde”; in series [13] it was “Dde”; in series [15], “Dde”; in [16], 35%; in [22], “Dde”. In addition, the Activity result in series [23] was “Dde”; in series [19], 8%. In addition, the minimal inhibitory concentration (MIC) in [7] worked out at 12.5 µg/mL (≈ 9.52 µM); in series [20] it was 12.5 µg/mL (≈ 9.52 µM); in series [11] it was 6.2 µg/mL (≈ 4.72 µM); in [12], 6.2 µg/mL (≈ 4.72 µM). Also, the result in [9] was Active. In series [10], the remaining at 24 h, 100 µM is 21%. For the same compound, in series [14], the remaining at 0.5 h, 100 µM was 69%. The concentration for 50% haemolysis (HC50) at 2 h in series [18] worked out at 145 µg/mL.

As a reminder, the MIC is the least concentration at which growth counts as inhibited. A word on the HC50: it is the concentration that lyses half of the red blood cells.
